Reference: article PMC10122656, “Siglec-6 mediates the uptake of extracellular vesicles through a noncanonical glycolipid binding pocket” (Nature Communications, 2023)
Where “and” joins values, the source holds several entries; their conditions need not be identical. Identical values can stand only once.

Assays:
[1] = test system: untransfected (UT) CHO cells; assay: Cell assay (liposome/EV binding, flow cytometry); format: cell-based, Chinese Hamster; settings: UT; 3 mol% ganglioside liposomes; replicates
Experimental: (§1) Stock lipids (DSPC, Cholesterol, PEG45–DSPE) solutions were prepared by solvating the lipids in chloroform. An appropriate volume of each lipid solution was transferred to a glass test tube to reach the desired mol% of the component. The chloroform was then removed under N2 gas to yield a lipid thin film. Once dry, 100 µL of DMSO was added to the lipid-containing test tube and then the functional lipids (ganglioside, AF647–PEG45–DSPE, Siglec ligand–PEG45–DSPE, pHrodo–PEG45–DSPE, NGL) was added from their respect DMSO stock solution. The lipid mixture was then stored at −80 °C until completely frozen at which point excess DMSO was removed via lyophilization. Dry lipids were then stored at −80 °C until they were extruded. Lipid suppliers can be found in Supplementary Table 4.
(§2) Dry lipids were then hydrated in 1 mL of PBS. The lipids were then sonicated in a bath sonicator in a cycle of 1 min on, 5 min off for a total of five cycles. Liposomes were then extruded using an Avanti mini extruder first using an 800 nm filter and then a 100 nm filter yielding liposomes that were 130 ± 35 nm (Supplementary Table 5) measured using a Malvern Panalytical Zetasizer Nano S. Liposomes were stored at 4 °C.
(§3) 200,000 cells/well were plated into a 96-well U-bottom microplate and centrifuged at 300 × g for 5 min. The cells were then resuspended in 50 µL of 50 µM liposome/50 µg/mL (protein concentration) of EV solution in DMEM F12 5% FBS and incubated at 37 °C for 30 min. Excess liposomes were then removed via centrifuged at 300 × g for 5 min followed by washing the cells with FACS solution. The cells were then resuspended in (1:250 V/V) anti-Siglec-flow buffer (1% V/V FBS, 500 µM, EDTA Hank’s Balanced Salt Solution pH 7.4), solution and left to rest on ice for 30 min. The cells were then centrifuged again at 300 × g for 5 min and the cells were resuspended in FACS buffer solution and were then ready for analysis by flow cytometry. Information regarding antibody clone, catalog number supplier, label isotype, and dilution can be found in Supplementary Table 6. The Siglec-positive cells were gated on for liposome-binding analysis (Supplementary Fig. 1b).
(§4) Flow cytometry measurements were collected on a 5-laser Fortessa X-20 (BD Bioscience). All the resulting data were analyzed using FlowJo (10.5.3) software (BD Biosciences).

WT Siglec-1 CHO cells = molecular target: T1, WT Siglec-1 CHO cells (Homo sapiens, UniProt Q9BZZ2); assay: Cell assay (liposome/EV binding, flow cytometry); format: cell-based; set-up: GM1 liposome binding to Siglec-1 CHO cells, flow cytometry (Fig. 1b) / Binding of liposomes with increasing ganglioside content against Siglec-1 CHO cells (Fig. 1c) / Liposome binding to Siglec-1-expressing CHO cells in the cell assay (Fig. 1f): unit not given here; settings: for Binding of liposomes with increasing ganglioside content against Siglec-1 CHO cells (Fig. 1c) / log10(MFI AF647) of GLL relative to log10(MFI AF647) of the same GLL against UT CHO cells (Fig. 2a): replicates; for log10(MFI AF647) of GLL relative to log10(MFI AF647) of the same GLL against UT CHO cells (Fig. 2a): Sig-1 WT, 3 mol% ganglioside liposomes
T1 construct: expressed in transfected cells
Experimental: as §1, §2, §3, §4

R122A Siglec-6-Fc = molecular target: T2, R122A Siglec-6-Fc (Homo sapiens, UniProt O43699, R122A); assay: Ganglioside ELISA; format: binding; settings: Figure 2c, replicates
T2 construct: the Siglecs as Fc chimeras; made in house; host or cells: WT CHO cells
Experimental: (§5) Siglec-Fc constructs designed by Rodrigues et al.[30] were used in this work. Siglec-Fc constructs were expressed using WT CHO cells in cell culture media as described above with 1% HEPES. Cells incubated as described above for one-week post confluency. The supernatant was harvested and stored at 4 °C.
(§6) The purification was heavily inspired by Rodrigues et al.[30]. The purification of the Siglec-Fcs from supernatant began with Ni^2+ affinity chromatography using an AKTA FPLC equipped with a HisTrap Excel column (GE). The column was equilibrated with fifteen column volumes (CVs) of equilibrium buffer (500 mM NaCl, 20 mM NaPO4H2, pH 7.4). The Siglec-Fc containing supernatant was then loaded in its entirety onto the column. The column was then washed with fifteen CVs of wash buffer (500 mM NaCl, 30 mM imidazole, 20 mM NaPO4H2, pH 7.4). The Siglec-Fc was then eluted in 20 in 1 mL fractions with twenty CVs of elution buffer (500 mM NaCl, 500 mM imidazole, 20 mM NaPO4H2, pH 7.4). Fractions containing Siglec-Fc were compiled and then prepared for the next stage of purification by diluting the fractions 1:4 with buffer W (100 mM Tris–HCl, 150 mM NaCl, 1 mM EDTA, pH 8.0). A Strep-Tactin column (IBA life sciences) was washed with fifteen CVs of buffer W. The Siglec-Fc-buffer W solution was then loaded in its entirety onto the column. The bound Siglec-Fc was then washed with fifteen CVs of buffer W. Siglec-Fc was eluted from the column with 15 column volumes of buffer E (100 mM Tris–HCl, 150 mM NaCl, 1 mM EDTA, 10 mM d-Desthiobiotin, pH 8.0). Fractions containing Siglec-Fc were pooled and dialyzed against PBS to remove any d-Desthiobiotin. After dialysis, Siglec-Fcs were concentrated using an ultra-centrifugal device (30 kDa MWCO) and aliquoted into 5 µg aliquots, and frozen. The Siglec-Fcs were then lyophilized overnight, and the lyophilized Siglec-Fcs were stored at −20 °C.
(§7) Our ELISA approach was carried out similarly to previous work by Rapoport[12] and Yamakawa[44]. Ganglioside ethanol solutions (10 µM) were prepared and then transferred in 50 µL increments to a 96-well microplate. The ethanol was removed by drying the plates overnight at room temperature. The plates were then washed with PBS, dried, and then blocked with 5% (m/V) BSA PBS for 1 h. The plates were then washed with PBS and then 2 µg/mL Siglec-Fc precomplexed to Strep-Tactin (2 Siglec-Fc:1 Strep-Tactin monomer) horse radish peroxidase was added to the microplate. The complex was incubated with the plate at room temperature for 2 h. The unbound complexes were then removed by washing in PBS and the plate was developed with Sera care TMB solution. The amount of binding was then quantified by using the background (microplate well with no ligand) subtracted absorbance at 450 nm using a Molecular Devices SpectraMAX ® iD5.

Siglec-1-Fc WT = Siglec-1-Fc WT (Homo sapiens, UniProt Q9BZZ2); assay: Ganglioside ELISA; format: binding; settings: Figure 2c, replicates
Experimental: as §5, §6, §7

Siglec-6-Fc WT = molecular target: T3, Siglec-6-Fc WT (Homo sapiens, UniProt O43699); assay: Ganglioside ELISA; format: binding; settings: for ganglioside ELISA signal, Siglec-6 WT: Figure 2c, replicates; for ELISA recognition of adsorbed ganglioside by Siglec-6 (in words): ganglioside adsorbed to microplate, outside a bilayer
T3 construct: the Siglecs as Fc chimeras; made in house; host or cells: WT CHO cells
Experimental: as §5, §6, §7

Siglec-7-Fc R124A = molecular target: T4, Siglec-7-Fc R124A (Homo sapiens, UniProt Q9Y286, R124A); assay: Ganglioside ELISA; format: binding; settings: Figure 2c, replicates
T4 construct: the Siglecs as Fc chimeras; made in house; host or cells: WT CHO cells
Experimental: as §5, §6, §7

Siglec-7-Fc WT = molecular target: T5, Siglec-7-Fc WT (Homo sapiens, UniProt Q9Y286); assay: Ganglioside ELISA; format: binding; settings: Figure 2c, replicates
T5 construct: the Siglecs as Fc chimeras; made in house; host or cells: WT CHO cells
Experimental: as §5, §6, §7

T4 sequence (Q9Y286 19-353 R124A limits assumed): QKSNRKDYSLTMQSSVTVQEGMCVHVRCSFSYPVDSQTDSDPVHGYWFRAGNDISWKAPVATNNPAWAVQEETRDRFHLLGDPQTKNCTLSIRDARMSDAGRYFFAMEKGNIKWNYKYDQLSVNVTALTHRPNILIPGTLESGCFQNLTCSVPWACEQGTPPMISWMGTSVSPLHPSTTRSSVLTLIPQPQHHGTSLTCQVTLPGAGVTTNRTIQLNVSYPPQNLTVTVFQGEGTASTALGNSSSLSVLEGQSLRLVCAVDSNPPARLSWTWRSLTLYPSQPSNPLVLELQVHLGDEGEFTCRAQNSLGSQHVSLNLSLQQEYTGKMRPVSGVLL
T1 sequence (Q9BZZ2 20-1709): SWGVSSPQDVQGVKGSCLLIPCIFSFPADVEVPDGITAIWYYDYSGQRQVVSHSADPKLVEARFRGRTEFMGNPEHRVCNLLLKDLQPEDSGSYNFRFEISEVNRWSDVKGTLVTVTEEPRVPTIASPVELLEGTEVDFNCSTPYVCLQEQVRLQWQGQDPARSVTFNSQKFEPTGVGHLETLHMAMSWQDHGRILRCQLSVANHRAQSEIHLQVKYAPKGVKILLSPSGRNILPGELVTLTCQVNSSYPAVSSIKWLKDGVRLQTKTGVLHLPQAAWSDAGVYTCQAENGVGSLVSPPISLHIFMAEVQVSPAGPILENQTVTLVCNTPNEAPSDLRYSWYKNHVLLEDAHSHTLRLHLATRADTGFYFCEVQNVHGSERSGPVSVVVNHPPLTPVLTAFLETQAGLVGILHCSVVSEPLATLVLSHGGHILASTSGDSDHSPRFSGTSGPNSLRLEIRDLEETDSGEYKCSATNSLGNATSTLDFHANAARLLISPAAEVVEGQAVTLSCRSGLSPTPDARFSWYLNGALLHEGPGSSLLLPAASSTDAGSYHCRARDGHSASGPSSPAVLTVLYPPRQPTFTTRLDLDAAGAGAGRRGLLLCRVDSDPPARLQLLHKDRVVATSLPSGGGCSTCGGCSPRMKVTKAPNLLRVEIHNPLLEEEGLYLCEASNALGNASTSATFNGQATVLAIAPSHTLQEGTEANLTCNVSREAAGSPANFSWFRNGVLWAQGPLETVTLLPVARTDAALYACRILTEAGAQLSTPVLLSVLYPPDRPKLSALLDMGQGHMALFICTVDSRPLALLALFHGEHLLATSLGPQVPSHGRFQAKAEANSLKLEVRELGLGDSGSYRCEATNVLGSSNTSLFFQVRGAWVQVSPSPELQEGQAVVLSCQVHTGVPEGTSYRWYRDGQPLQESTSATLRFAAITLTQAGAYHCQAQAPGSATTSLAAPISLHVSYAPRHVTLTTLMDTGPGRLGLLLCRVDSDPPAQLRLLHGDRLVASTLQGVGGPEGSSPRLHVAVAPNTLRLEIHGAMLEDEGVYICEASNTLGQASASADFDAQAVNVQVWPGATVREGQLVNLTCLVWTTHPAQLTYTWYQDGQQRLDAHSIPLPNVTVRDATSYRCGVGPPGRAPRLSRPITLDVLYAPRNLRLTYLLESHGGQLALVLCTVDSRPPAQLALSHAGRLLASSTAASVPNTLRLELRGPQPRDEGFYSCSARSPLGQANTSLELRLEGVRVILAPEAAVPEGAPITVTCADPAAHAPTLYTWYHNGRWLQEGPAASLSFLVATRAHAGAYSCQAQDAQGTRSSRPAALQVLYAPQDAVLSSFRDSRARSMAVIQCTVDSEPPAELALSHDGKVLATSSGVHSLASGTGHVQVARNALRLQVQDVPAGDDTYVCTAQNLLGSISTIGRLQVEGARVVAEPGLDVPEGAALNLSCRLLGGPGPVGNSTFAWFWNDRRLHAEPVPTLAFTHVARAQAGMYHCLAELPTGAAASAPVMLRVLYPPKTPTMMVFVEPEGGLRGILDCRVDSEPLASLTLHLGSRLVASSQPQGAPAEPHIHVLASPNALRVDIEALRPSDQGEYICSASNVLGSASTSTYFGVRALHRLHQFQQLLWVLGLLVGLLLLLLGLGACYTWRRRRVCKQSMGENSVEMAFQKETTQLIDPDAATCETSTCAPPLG
T5 sequence (Q9Y286 19-353 limits assumed): as the sequence (Q9Y286 19-353 R124A limits assumed) above, with A106R counted along it
T3 sequence (O43699 27-347 limits assumed): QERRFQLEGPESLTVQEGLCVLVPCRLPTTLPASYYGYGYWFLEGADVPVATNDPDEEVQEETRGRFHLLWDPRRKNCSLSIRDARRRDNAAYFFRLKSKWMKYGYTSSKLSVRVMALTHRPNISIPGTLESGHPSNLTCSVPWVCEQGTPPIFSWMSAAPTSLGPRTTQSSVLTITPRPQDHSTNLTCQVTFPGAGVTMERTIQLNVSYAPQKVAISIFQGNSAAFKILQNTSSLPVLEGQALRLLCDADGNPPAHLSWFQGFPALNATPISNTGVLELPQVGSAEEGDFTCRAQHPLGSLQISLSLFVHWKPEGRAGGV
Chain of Siglec-1-Fc WT (Q9BZZ2 20-136 limits assumed): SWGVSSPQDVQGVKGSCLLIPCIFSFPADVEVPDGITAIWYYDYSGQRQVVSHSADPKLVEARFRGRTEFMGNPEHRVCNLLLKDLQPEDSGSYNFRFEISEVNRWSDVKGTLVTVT
T2 sequence (O43699 27-347 R122A limits assumed): as the sequence (O43699 27-347 limits assumed) above, with R96A counted along it

| Substance | log10(MFI AF647) of GLL relative to log10(MFI AF647) of the same GLL against UT CHO cells (Fig. 2a) [1] | Binding of liposomes with increasing ganglioside content against Siglec-1 CHO cells (Fig. 1c) (WT Siglec-1 CHO cells; 0.00187 Ligand/nm2) | Binding of liposomes with increasing ganglioside content against Siglec-1 CHO cells (Fig. 1c) (WT Siglec-1 CHO cells; 0.00933 Ligand/nm2) | Binding of liposomes with increasing ganglioside content against Siglec-1 CHO cells (Fig. 1c) (WT Siglec-1 CHO cells; 0.0187 Ligand/nm2) | Binding of liposomes with increasing ganglioside content against Siglec-1 CHO cells (Fig. 1c) (WT Siglec-1 CHO cells; 0.056 Ligand/nm2) | Binding of liposomes with increasing ganglioside content against Siglec-1 CHO cells (Fig. 1c) (WT Siglec-1 CHO cells; 0.0933 Ligand/nm2) | Binding of liposomes with increasing ganglioside content against Siglec-1 CHO cells (Fig. 1c) (WT Siglec-1 CHO cells; 0.373 Ligand/nm2) | log10(MFI AF647) of GLL relative to log10(MFI AF647) of the same GLL against UT CHO cells (Fig. 2a) (WT Siglec-1 CHO cells) | ganglioside content threshold above which GLL binding to Siglec-1 CHO cells decreased (WT Siglec-1 CHO cells; ganglioside titrated in GLLs) | ganglioside ELISA signal, Siglec-6 R (R122A Siglec-6-Fc) | ganglioside ELISA signal, Siglec-1 WT (Siglec-1-Fc WT) | ganglioside ELISA signal, Siglec-6 WT (Siglec-6-Fc WT) | ganglioside ELISA signal, Siglec-7 R (Siglec-7-Fc R124A) | ganglioside ELISA signal, Siglec-7 WT (Siglec-7-Fc WT) | Binding of liposomes with increasing ganglioside content against Siglec-1 CHO cells (Fig. 1c) (WT Siglec-1 CHO cells; 0.187 Ligand/nm2) | trend of GLL binding to Siglec-1 CHO cells with ganglioside content (WT Siglec-1 CHO cells; ganglioside titrated in GLLs) | ELISA recognition of adsorbed ganglioside by Siglec-6 (in words) (Siglec-6-Fc WT) |
| --- | --- | --- | --- | --- | --- | --- | --- | --- | --- | --- | --- | --- | --- | --- | --- | --- | --- |
| GM2 | 0.1 and 0.05 (2×) and 0.06 | -0.01 | 0.11 (2×) and 0.13 and 0.16 | 1.01 and 0.97 and 1 and 1.02 | 0.8 and 0.79 and 0.78 (2×) | 0.59 and 0.57 and 0.55 (2×) | 0.24 and 0.22 (3×) | 1.23 and 1.19 and 1.21 and 1.2 | 1–3 mol% | 0.04 and 0.05 and 0.06 and 0.07 | 0.89 and 1.09 and 1.03 and 1.06 | 0 and 0.04 and 0.02 and 0.03 | -0.01 and 0 and -0.02 | 0.12 and 0.09 and 0.1 and 0.06 | – | – | – |
| GM3 | 0.01 (2×) and -0.01 and 0 | – | – | 0 | 0.02 | 0.04 | 0.33 and 0.36 and 0.26 | 0.19 and 0.16 and 0.23 and 0.17 | – | 0.34 and 0.37 and 0.41 and 0.4 | 0.99 and 1.04 and 1.15 and 1.05 | 0.27 and 0.3 and 0.26 | -0.02 and 0 | 0.61 and 0.6 and 0.68 and 0.7 | 0.13 (2×) and 0.12 and 0.14 and 0.16 (4×) | progressive increase in GLL binding up to 20 mol% | interacted weakly |
| GM4 | 0.02 and -0.01 (2×) and 0 | – | – | – | – | – | – | 0.04 and 0.02 (2×) and -0.02 | – | 0.26 and 0.23 and 0.24 and 0.28 | 0.62 and 0.66 and 0.72 and 0.59 | 0.22 and 0.25 and 0.27 and 0.23 | -0.01 and 0 and -0.02 | 0.52 and 0.45 and 0.53 and 0.58 | – | – | interacted weakly |
| GQ1b | 0.01 and -0.02 (2×) and 0.03 | – | – | – | – | – | – | 0.04 and 0.07 and 0.05 and 0.03 | – | 0.11 and 0.1 and 0.13 and 0.12 | 0.15 and 0.21 and 0.24 and 0.23 | -0.1 and -0.02 and -0.09 and -0.12 | -0.01 and 0 | 0.66 and 0.63 and 0.69 | – | – | did not recognize |
| GT1b | 0 (2×) and 0.01 and -0.01 | – | – | – | – | – | – | 0.29 (2×) and 0.32 and 0.23 | – | 0.11 and 0.08 and 0.1 and 0.13 | 0.25 and 0.3 and 0.43 and 0.46 | -0.04 and -0.01 and -0.09 and -0.11 | -0.01 and -0.02 | 0.49 and 0.55 and 0.5 | – | – | did not recognize |
